Reference: US20140309210A1, “INDAZOLE COMPOUNDS, COMPOSITIONS AND METHODS OF USE THEREOF” (Genentech, Inc., priority 2011, published 2014)

Biological target: T1, purified ITK (Invitrogen PV3875) (Homo sapiens, UniProt Q08881)
T1 construct: purchased Invitrogen PV3875
T1 sequence (Q08881 1-620): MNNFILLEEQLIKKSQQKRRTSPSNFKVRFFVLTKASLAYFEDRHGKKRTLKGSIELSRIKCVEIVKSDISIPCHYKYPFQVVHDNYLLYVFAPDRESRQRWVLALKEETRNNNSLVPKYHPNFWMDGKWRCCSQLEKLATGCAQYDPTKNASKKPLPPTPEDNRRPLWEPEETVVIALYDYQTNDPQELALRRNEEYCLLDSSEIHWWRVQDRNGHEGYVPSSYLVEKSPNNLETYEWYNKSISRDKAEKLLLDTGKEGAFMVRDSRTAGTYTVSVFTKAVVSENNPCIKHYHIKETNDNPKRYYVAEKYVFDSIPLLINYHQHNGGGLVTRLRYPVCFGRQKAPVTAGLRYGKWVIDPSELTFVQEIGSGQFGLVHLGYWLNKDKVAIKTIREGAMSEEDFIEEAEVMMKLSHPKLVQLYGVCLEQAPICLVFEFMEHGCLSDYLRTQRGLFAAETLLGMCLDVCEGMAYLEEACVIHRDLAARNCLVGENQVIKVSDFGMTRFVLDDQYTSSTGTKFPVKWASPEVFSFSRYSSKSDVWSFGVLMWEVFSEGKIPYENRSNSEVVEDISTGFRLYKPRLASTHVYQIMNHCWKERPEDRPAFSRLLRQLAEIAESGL
Test: ITK peptide phosphorylation assay (Caliper LabChip or LCMS)
Format: biochemical
Procedure: The ability of purified ITK (Invitrogen PV3875) to catalyze peptide phosphorylation is monitored using a Caliper LabChip 3000 microfluidic unit (Caliper assay) or by liquid chromatography-mass spectrometry (LCMS) using a Waters Acquity system (LCMS assay). […] Reactions are quenched by the addition of 2,2′,2″,2′″-(ethane-1,2-diyldinitrilo)tetraacetic acid (50 mM final). Non-phosphorylated substrate and phosphorylated product peptides are separated and quantified using a Caliper LabChip 3000 instrument. […] Reactions are quenched by the addition of trichloroacetic acid (5% v/v final). Non-phosphorylated substrate and phosphorylated product peptides are separated by ultra performance LC and detected by a coupled triple quadrupole MS device applying multiple reaction monitoring (MRM) for quantification. The area of the MRM-extracted mass signal is used to assess the inhibition by test compounds. Equilibrium dissociation constant (Ki) values for ITK inhibitors are calculated from plots of activity vs. inhibitor concentration using Morrison's quadratic equation that accounts for the potential of tight binding, and by also applying the conversion factor that accounts for competitive inhibition and the concentration of ATP used in the assay relative to its apparent Michaelis constant (Km,app).

[1] = Table 2, Examples 1-140, class symbols

Row | SMILES | Ki [1] [nM] | Ki (Table 1, Examples 141-279) [nM] | other results
1 | Cc1ccccc1Cn1cc(NC(=O)c2n[nH]c3ccccc23)cn1 [Example 56, N-(1-(2-methylbenzyl)-1H-pyrazol-4-yl)-1H-indazole-3-carboxamide] | 1 to 100 |  | 
2 | O=C(Nc1cnn(Cc2ccc(CN3CCC(O)C3)cc2)c1)c1n[nH]c2ccccc12 (stereo not drawn) [Example 114, N-(1-(4-((3-hydroxypyrrolidin-1-yl)methyl)benzyl)-1H-pyrazol-4-yl)-1H-indazole-3-carboxamide] | 1 to 100 |  | 
3 | CN(C)CCNCc1cccc(Cn2cc(NC(=O)c3n[nH]c4ccccc34)cn2)c1 [Example 102, N-(1-(3-((2-(dimethylamino)ethylamino)methyl)benzyl)-1H-pyrazol-4-yl)-1H-indazole-3-carboxamide] | 1 to 100 |  | 
4 | O=C(Nc1cnn(Cc2cscn2)c1)c1n[nH]c2cc(-c3cccnc3)ccc12 [Example 34, 6-(3-pyridyl)-N-[1-(thiazol-4-ylmethyl)pyrazol-4-yl]-1H-indazole-3-carboxamide] | 1 to 100 |  | 
5 | O=C(Nc1cnn(Cc2csc(-c3cccs3)n2)c1)c1n[nH]c2cc(-c3cn[nH]c3)ccc12 [Example 23, 6-(1H-Pyrazol-4-yl)-1H-indazole-3-carboxylic acid [1-(2-thiophen-2-yl-thiazol-4-ylmethyl)-1H-pyrazol-4-yl]-amide] | 1 to 100 |  | 
6 | CC[C@@H](c1ccccc1)n1cc(NC(=O)c2n[nH]c3cc(-c4ccncc4)ccc23)cn1 [Example 140, (S)—N-(1-(1-phenylpropyl)-1H-pyrazol-4-yl)-6-(pyridin-4-yl)-1H-indazole-3-carboxamide] | 1 to 100 |  | 
7 | COc1ccccc1Cn1cc(NC(=O)c2n[nH]c3ccccc23)cn1 [Example 64, N-(1-(2-methoxybenzyl)-1H-pyrazol-4-yl)-1H-indazole-3-carboxamide] | > 100 |  | 
8 | CCn1cc(NC(=O)c2n[nH]c3cc(-c4cn[nH]c4)ccc23)cn1 [Example 83, N-(1-ethyl-1H-pyrazol-4-yl)-6-(1H-pyrazol-4-yl)-1H-indazole-3-carboxamide] | 1 to 100 |  | 
9 | CN1CCN(c2ccc3c(C(=O)Nc4cnn(Cc5cccc(C#N)c5)c4)n[nH]c3c2)CC1 [Example 176, N-[1-[(3-cyanophenyl)meth-yl]pyrazol-4-yl]-6-(4-methylpiperazin-1-yl)-1H-indazole-3-carboxamide] |  | 374 | 
10 | N#Cc1cccc(Cn2cc(NC(=O)c3n[nH]c4cc(NC5CCNCC5)ccc34)cn2)c1 [Example 173, N-[1-[(3-cyanophenyl)meth-yl]pyrazol-4-yl]-6-(4-piperidylamino)-1H-indazole-3-carboxamide] |  | 1200 | 
11 | N#Cc1cccc(Cn2cc(NC(=O)c3n[nH]c4ccc(-c5cn[nH]c5)cc34)cn2)c1 [Example 81, N-(1-(3-Cyanobenzyl)-1H-pyrazol-4-yl)-5-(1H-pyrazol-4-yl)-1H-indazole-3-carboxamide] | 1 to 100 |  | 
12 | Cn1nccc1-c1ccc2c(C(=O)Nc3cnn(Cc4cccc(C#N)c4)c3)n[nH]c2c1 [Example 196, N-[1-[(3-cyanophenyl)meth-yl]pyrazol-4-yl]-6-(2-methylpyrazol-3-yl)-1H-indazole-3-carboxamide] |  | 354 | 
13 | O=C(Nc1cnn(Cc2cccc(-c3cccnc3)c2)c1)c1n[nH]c2cc(-c3cn[nH]c3)ccc12 [Example 36, 6-(1H-Pyrazol-4-yl)-1H-indazole-3-carboxylic acid [1-(3-pyridin-3-yl-benzyl)-1H-pyrazol-4-yl]-amide] | 0.01 to 1 |  | 
14 | N#Cc1cccc(Cn2cc(NC(=O)c3n[nH]c4cc(Br)c(F)cc34)cn2)c1 [Example 146, 6-bromo-N-[1-[(3-cyanophenyl)meth-yl]pyrazol-4-yl]-5-fluoro-1H-indazole-3-carboxamide] |  | 111 | 
15 | Cc1ccc(-c2ccc3c(C(=O)Nc4cnn(Cc5cccc(C#N)c5)c4)n[nH]c3c2)cn1 [Example 120, N-(1-(3-cyanobenzyl)-1H-pyrazol-4-yl)-6-(6-methylpyridin-3-yl)-1H-indazole-3-carboxamide] | 1 to 100 |  | 
16 | O=C(Nc1cnn(Cc2cn3ccccc3n2)c1)c1n[nH]c2cc(-c3cn[nH]c3)ccc12 [Example 19, 6-(1H-Pyrazol-4-yl)-1H-indazole-3-carboxylic acid (1-imidazo[1,2-a]pyridin-2-ylmethyl-1H-pyrazol-4-yl)-amide] | 1 to 100 |  | Ki (Table 3, specific values for certain examples): 2.3 nM
17 | CC(O)CNCc1cccc(Cn2cc(NC(=O)c3n[nH]c4ccccc34)cn2)c1 (stereo not drawn) [Example 93, N-(1-(3-((2-hydroxypropylamino)methyl)benzyl)-1H-pyrazol-4-yl)-1H-indazole-3-carboxamide] | 1 to 100 |  | 
18 | CCNCc1ccc(Cn2cc(NC(=O)c3n[nH]c4ccccc34)cn2)cc1 [Example 110, N-(1-(4-((ethylamino)methyl)benzyl)-1H-pyrazol-4-yl)-1H-indazole-3-carboxamide] | 1 to 100 |  | 
19 | CN1CCN(c2cccc(Cn3cc(NC(=O)c4n[nH]c5cc(-c6cn[nH]c6)ccc45)cn3)c2)CC1 [Example 39, N-[1-[[3-(4-methylpiperazin-1-yl)phenyl]methyl]pyrazol-4-yl]-6-(1H-pyrazol-4-yl)-1H-indazole-3-carboxamide] | 0.01 to 1 |  | 

Further lines, with some results ahead:

Row | Ki [1] [nM] | Ki (Table 1, Examples 141-279) [nM] | SMILES | other results
20 |  | 8.92 | CN(CCC(c1ccccc1)n1cc(NC(=O)c2n[nH]c3ccccc23)cn1)CC(F)(F)F (stereo not drawn) [Example 270, N-[1-[3-[methyl(2,2,2-trifluoroethyl)a-mino]-1-phenyl-propyl]pyrazol-4-yl]-1H-indazole-3-carboxamide] | 
21 |  | 5 | O=C(Nc1cnn(Cc2ccccc2)c1)c1n[nH]c2cc(-c3cncc(F)c3)ccc12 [Example 210, N-(1-benzylpyrazol-4-yl)-6-(5-fluoro-3-pyridyl)-1H-indazole-3-carboxamide] | 
22 |  | 40.8 | CN1CCOc2cc(-c3ccc4c(C(=O)Nc5cnn(Cc6cccnc6)c5)n[nH]c4c3)cnc21 [Example 231, 6-(4-methyl-2,3-dihydropyrido[3,2-b][1,4]oxazin-7-yl)-N-[1-(3-pyridylmethyl)py-razol-4-yl]-1H-indazole-3-carboxamide] | 
23 |  | 0.727 | CN(C)CCC(c1cscn1)n1cc(NC(=O)c2n[nH]c3cc(-c4cn[nH]c4)ccc23)cn1 (stereo not drawn) [Example 200, N-[1-[3-(dimethylamino)-1-thiazol-4-yl-propyl]pyrazol-4-yl]-6-(1H-pyrazol-4-yl)-1H-indazole-3-carboxamide] | 
24 |  | 32.4 | COCCN(C)CC(c1cccnc1)n1cc(NC(=O)c2n[nH]c3cc(-c4cncc(OC)c4)ccc23)cn1 (stereo not drawn) [Example 229, N-[1-[2-[2-methoxyethyl(meth-yl)amino]-1-(3-pyridyl)ethyl]py-razol-4-yl]-6-(5-methoxy-3-pyridyl)-1H-indazole-3-carboxamide] | 
25 |  | 105 | CN(CCC(c1ccccc1)n1cc(NC(=O)c2n[nH]c3ccccc23)cn1)CC(F)(F)F (stereo not drawn) [Example 269, N-[1-[3-[methyl(2,2,2-trifluoroethyl)a-mino]-1-phenyl-propyl]pyrazol-4-yl]-1H-indazole-3-carboxamide] | 
26 |  | 8.01 | COc1cncc(-c2ccc3c(C(=O)Nc4cnn(C(CCN(C)C)c5ccccc5)c4)n[nH]c3c2)c1 (stereo not drawn) [Example 213, N-[1-[3-(dimethylamino)-1-phenyl-propyl]pyrazol-4-yl]-6-(5-methoxy-3-pyridyl)-1H-indazole-3-carboxamide] | 
27 |  | 6.5 | CN1CCC(Cn2cc(NC(=O)c3n[nH]c4cc(-c5cn[nH]c5)ccc34)cn2)C1 (stereo not drawn) [Example 254, N-[1-[(1-methylpyrrolidin-3-yl)methyl]pyrazol-4-yl]-6-(1H-pyrazol-4-yl)-1H-indazole-3-carboxamide] | 
28 |  | 726 | O=C(Nc1cnn(Cc2ccccc2)c1)c1n[nH]c2c(F)cccc12 [Example 230, N-(1-benzylpyrazol-4-yl)-7-fluoro-1H-indazole-3-carboxamide] | 
29 |  | 5.68 | CN1CCC(Cn2cc(NC(=O)c3n[nH]c4cc(-c5cn[nH]c5)ccc34)cn2)CC1 [Example 258, N-[1-[(1-methyl-4-piperidyl)meth-yl]pyrazol-4-yl]-6-(1H-pyrazol-4-yl)-1H-indazole-3-carboxamide] | 
30 |  | 129 | N#Cc1ccc2c(C(=O)Nc3cnn(Cc4ccccc4)c3)n[nH]c2c1 [Example 206, N-(1-benzylpyrazol-4-yl)-6-cyano-1H-indazole-3-carboxamide] | 
31 |  | 2.93 | O=C(Nc1cnn(Cc2ccccn2)c1)c1n[nH]c2cc(-c3cn[nH]c3)ccc12 [Example 220, 6-(1H-pyrazol-4-yl)-N-[1-(2-pyridylmethyl)py-razol-4-yl]-1H-indazole-3-carboxamide] | 
32 |  | 146 | O=C(Nc1cnn(C(CO)c2ccccc2)c1)c1n[nH]c2ccccc12 (stereo not drawn) [Example 256, N-[1-(2-hydroxy-1-phenyl-ethyl)pyrazol-4-yl]-1H-indazole-3-carboxamide] | 
